Results as given in US3956492A, “Pharmaceutical compositions containing a 3-(amino-methylene)-5-phenyl-1,4-benzodiazepin-2-one and method of use” (Boehringer Ingelheim GmbH, priority 1972, dated 1976).
Where two headings read alike, the source gives them in different places.

How the values were obtained:
Assay type in all cases: in vivo
female NMRI-mice = experiment: Muscle-relaxing and sedative activity by the method of Young and Lewis (holding ability in slowly rotating inclined wire-mesh cylinders); details: Mus musculus, po, 50% of animals fall out of cylinders
Protocol: The muscle-relaxing and sedative activities were tested by the method of Young and Lewis [Science 105, 368 (1947)]on female NMRI-mice of our own breed with a body weight between 20 and 26 gm by means of slowly turning wire-mesh cylinders, inclined at 30° from the vertical (length : 43 cm; diameter : 22 cm; mesh-size of the wire netting : 0.6 cm). After peroral administration of the test compound in the form of a 1% suspension in tylose to groups of 10 mice/dose their holding ability in the slowly rotating cylinders was tested (2 rotations/minute) against a control group. The median effective dose (ED50) was graphically determined which caused 50% of the animals to fall out of the cylinders at various time intervals after administration.

adult laboratory mice = experiment: Standard acute toxicity tests; details: group of 10 adult laboratory mice
Protocol: It should be added that the compounds of the formula I are virtually non-toxic. For instance, by standard acute toxicity tests were determined that even massive doses of 6400 mgm/kg p.o. of compound A or 3200 mgm/kg p.o. of compounds B or C produced no deaths in a group of 10 adult laboratory mice within 14 days.

male NMRI-mice = experiment: Anticonvulsive activity, protective effect against the maximum electro-shock-spasm; details: Mus musculus, po, p.o., 50% protected against tonic extensor component
Protocol: The anticonvulsive activity was tested in terms of the protective effect against the maximum electro-shock-spasm in male NMRI-mice of our own breed with a body weight between 20 and 26 gm analogous to Swinyard, Brown and Goodman [J. Pharmacol. exp. Therap. 106, 319 (1952)]. The animals were exposed to an alternating current of 50 cycles and 50 milliamperes (duration of stimulation 0.2 seconds), where the occurrence of the tonic extensor spasm was valued as positive. After peroral administration of the test compound in the form of a 1% suspension in tylose, the dose (ED50) was graphically determined which protected 50% of the animals against the tonic extensor component of the back extremities after various time intervals.

mice = experiment: Effect on spontaneous motility (sedative activity); details: Mus musculus, po, motility decreased by 50% vs control animals
Text: The sedative activity was further determined on mice in terms of the decreasing effect upon the spontaneous motility. The motility of 8 mice per dose of test compound was compared to the motility of 8 control animals; each group was placed into separate motility-measuring cages (diameter : 25 cm), with 10 photoelectric cells in the floor and a light source above the cage. After peroral administration of the test compound the dose was graphically determined which decreased the motility by 50%, compared to the control animals, at various time intervals after administration.

[1] = after 30-60 min., read-out: ED50 after 30-60 min.
[2] = after 90-120 min., read-out: ED50 after 90-120 min.
[3] = after 210-240 min., read-out: ED50 after 210-240 min.
[4] = after 270-300 min., read-out: ED50 after 270-300 min.
[5] = 0.5 h, after 30 min., read-out: ED50 after 30 min.
[6] = 2.5 h, after 150 min., read-out: ED50 after 150 min.
[7] = 5 h, after 300 min., read-out: ED50 after 300 min.
[8] = after 90-95 min., read-out: ED50 after 90-95 min.
[9] = after 150-155 min., read-out: ED50 after 150-155 min.

Structure (SMILES) | ED50 (female NMRI-mice; [1]) | ED50 (female NMRI-mice; [2]) | ED50 (female NMRI-mice; [3]) | ED50 (female NMRI-mice; [4]) | deaths within 14 days (adult laboratory mice; 6400 mgm/kg p.o.) | ED50 (male NMRI-mice; [5]) | ED50 (male NMRI-mice; [6]) | ED50 (male NMRI-mice; [7]) | deaths within 14 days (adult laboratory mice; 3200 mgm/kg p.o.) | ED50 (mice; [8]) | ED50 (mice; [9])
CN1C(=O)C(=CN2CCOCC2)N=C(c2ccccc2Cl)c2cc(Cl)ccc21 [A, 7-chloro-5-(2'-chloro-phenyl)-1,3-dihydro-1-methyl-3-(morpholino-methylene)-2H-1,4-benzodiazepin-2-one] | 14 mg/kg | 5 mg/kg | 14 mg/kg | 3 mg/kg | no deaths | 100 mg/kg | 18 mg/kg | 13 mg/kg | – | – | –
NC=C1N=C(c2ccccc2Cl)c2cc(Cl)ccc2NC1=O [B, 3-(amino-methylene)-7-chloro-5-(2'-chloro-phenyl)-1,3-dihydro-2H-1,4-benzodiazepin-2-one] | 13 mg/kg | 3 mg/kg | 10 mg/kg | 11 mg/kg | – | 85 mg/kg | 28 mg/kg | 43 mg/kg | no deaths | – | –
CCNC=C1N=C(c2ccccc2Cl)c2cc(Cl)ccc2N(C)C1=O [C, 3-(ethylamino-methylene)-7-chloro-5-(2'-chloro-phenyl)-1,3-dihydro-1-methyl-2H-1,4-benzodiazepin-2-one] | 2 mg/kg | 3 mg/kg | 11 mg/kg | 3 mg/kg | – | 200 mg/kg | 28 mg/kg | 36 mg/kg | no deaths | – | –
CN1C(=O)C(=CN)N=C(c2ccccc2Cl)c2cc(Br)ccc21 [Compound E, 3-(amino-methylene)-7-bromo-5-(2'-chloro-phenyl)-1,3-dihydro-1-methyl-2H-1,4-benzodiazepin-2-one] | 7 mg/kg | 7 mg/kg | 5 mg/kg | 6 mg/kg | – | 18 mg/kg | 17 mg/kg | 26 mg/kg | – | – | –
CN1C(=O)C(=CN2CCOCC2)N=C(c2ccccc2Cl)c2cc(Br)ccc21 [D, 7-bromo-5-(2'-chloro-phenyl)-1,3-dihydro-1-methyl-3-(morpholino-methylene)-2H-1,4-benzodiazepin-2-one] | 33 mg/kg | 26 mg/kg | 16 mg/kg | 13 mg/kg | – | 200 mg/kg | 31 mg/kg | 34 mg/kg | – | 4.4 mg/kg | 5.2 mg/kg
NC=C1N=C(c2ccccc2Cl)c2cc(Br)ccc2NC1=O [F, 3-(amino-methylene)-7-bromo-5-(2'-chloro-phenyl)-1,3-dihydro-2H-1,4-benzodiazepin-2-one] | 0.5 mg/kg | 0.7 mg/kg | 0.7 mg/kg | 1.9 mg/kg | – | 70 mg/kg | 14.5 mg/kg | 16 mg/kg | – | 8.15 mg/kg | 3.76 mg/kg
CCNC=C1N=C(c2ccccc2Cl)c2cc(Br)ccc2NC1=O [G, 3-(ethylamino-methylene)-7-bromo-5-(2'-chloro-phenyl)-1,3-dihydro-2H-1,4-benzodiazepin-2-one] | 2.4 mg/kg | 1.25 mg/kg | 2.1 mg/kg | 2.4 mg/kg | – | 37 mg/kg | 8.8 mg/kg | 22 mg/kg | – | 1.56 mg/kg | 2.45 mg/kg
CN1C(=O)C(=CN)N=C(c2ccccc2Cl)c2cc(I)ccc21 [H, 3-(amino-methylene)-5-(2'-chloro-phenyl)-1,3-dihydro-7-iodo-1-methyl-2H-1,4-benzodiazepin-2-one] | 2.6 mg/kg | 1.5 mg/kg | 2.7 mg/kg | 1.6 mg/kg | – | 38 mg/kg | 30 mg/kg | 16 mg/kg | – | – | –
